In patent US20190093170A1, “USE OF TRANSLATIONAL PROFILING TO IDENTIFY TARGET MOLECULES FOR THERAPEUTIC TREATMENT” (THE REGENTS OF THE UNIVERSITY OF CALIFORNIA, priority 2013, published 2019):

System: PC3 human prostate cancer cells
Assay: RNA-seq mRNA abundance (part of ribosome profiling experiment);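 note: average poly(A) RNA-seq read density per codon over the coding sequence, excluding 15 initial and 5 final codons, mapped to hg19 transcripts, taken as mRNA abundance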
Type: cell-based
Conditions: for PP242 mRNA: 3-hour treatment with PP242 (2.5 μM) in PC3 cells
Protocol: Cells were subsequently treated with cycloheximide (100 μg ml^−1; Sigma) and detergent lysis was performed in the dish. The lysate was treated with DNase and clarified, and a sample was taken for RNA-seq analysis. Lysates were subjected to ribosome footprinting by nuclease treatment. Ribosome-protected fragments were purified, and deep sequencing libraries were generated from these fragments, as well as from poly(A) mRNA purified from non-nuclease-treated lysates. These libraries were analyzed by sequencing on an Illumina GAII.
Ribosome footprint and RNA-seq sequencing reads were aligned against a library of transcripts from the UCSC Known Genes database GRCh37/hg19. The first 25 nucleotides of each read were aligned using Bowtie and this initial alignment was then extended to encompass the full fragment-derived portion of the sequencing read while excluding the linker sequence. Read density profiles were then constructed for the canonical transcript of each gene, using only reads with 0 or 1 total mismatches between the read sequence and the reference sequence, comprised of the transcript fragment followed by the linker sequence. Footprint reads were assigned to an A site nucleotide at position +15 to +17 of the alignment, based on the total fragment length; mRNA reads were assigned to the first nucleotide of the alignment. The average read density per codon was then computed for the coding sequence of each transcript, excluding the first 15 and last 5 codons, which can display atypical ribosome accumulation.
Average read density was used as a measure of mRNA abundance (RNA-seq reads) and of protein synthesis (ribosome profiling reads). For most analyses, genes were filtered to require at least 256 reads in the relevant RNA-seq samples. Translational efficiency was computed as the ratio of ribosome footprint read density to RNA-seq read density, scaled to normalize the translational efficiency of the median gene to 1.0 after excluding regulated genes (log 2 fold-change+1.5 after normalizing for the all-gene median). Changes in protein synthesis, mRNA abundance and translational efficiency were similarly computed as the ratio of read densities between different samples, normalized to give the median gene a ratio of 1.0. This normalization corrects for differences in the absolute number of sequencing reads obtained for different libraries.

CC(C)n1nc(-c2cc3cc(O)ccc3[nH]2)c2c(N)ncnc21 [PP242]
PP242 mRNA (gene ACD): 0.20
mRNA (gene ACTG1): 0.28
mRNA (gene AGRN): 0.50
mRNA (gene ALKBH7): 0.51
mRNA (gene AP2A1): 0.42
mRNA (gene ARD1A): 0.03
mRNA (gene ATP5G2): 0.17
PP242 mRNA (gene C17orf28): 0.21
mRNA (gene C21orf66): −0.31
PP242 mRNA (gene CCNA1): −0.33
mRNA (gene CCNI): 0.24
mRNA (gene CD44): 0.43
mRNA (gene CIRBP): 0.54
mRNA (gene CLPTM1): 0.41
mRNA (gene COL6A2): 0.57
mRNA (gene CRTAP): 0.33
PP242 mRNA (gene DDX51): 0.17
PP242 mRNA (gene DGCR2): 0.05
mRNA (gene ECSIT): 0.26
PP242 mRNA (gene EEF1A1): 0.29
mRNA (gene EEF1A2): 0.40
mRNA (gene EEF1D): 0.35
mRNA (gene EEF1G): 0.15
mRNA (gene EEF2): 0.76
mRNA (gene EIF3H): 0.09
mRNA (gene EIF3L): 0.21
mRNA (gene EIF4B): 0.61
mRNA (gene EVPL): 0.38
mRNA (gene FAM83H): 0.33
mRNA (gene FAM128B): 0.43
mRNA (gene FASN): 0.30
mRNA (gene GLTSCR2): 0.70
mRNA (gene GNB2L1): 0.27
PP242 mRNA (gene GTPBP3): 0.15
mRNA (gene HNRNPA1): 0.27
mRNA (gene HSPA8): −0.40
mRNA (gene IMPDH2): 0.21
mRNA (gene LAMA5): 0.40
mRNA (gene LMF2): 0.62
PP242 mRNA (gene MAPK6): 0.10
PP242 mRNA (gene MAPKAPK2): −0.22
mRNA (gene MTA1): 0.21
mRNA (gene NCLN): 0.29
PP242 mRNA (gene NFATC21P): 0.08
PP242 mRNA (gene NR2F1): 0.87
mRNA (gene PABPC1): 0.16
mRNA (gene PABPC4): 0.40
mRNA (gene PACS1): 0.45
mRNA (gene PFDN5): 0.04
mRNA (gene PGLS): 0.21
mRNA (gene PGM1): 0.23
mRNA (gene PNKP): 0.33
PP242 mRNA (gene PRKD3): −0.46
mRNA (gene PTGES2): 0.17
mRNA (gene RABGGTB): 0.20
PP242 mRNA (gene RBPJ): 0.17
mRNA (gene RPL3): 0.22
mRNA (gene RPL4): 0.10
mRNA (gene RPL7): 0.01
mRNA (gene RPL7A): 0.15
mRNA (gene RPL9): −0.08
mRNA (gene RPL10): 0.25
mRNA (gene RPL10A): 0.14
mRNA (gene RPL11): 0.14
mRNA (gene RPL12): 0.12
mRNA (gene RPL13): 0.26
mRNA (gene RPL13A): 0.30
mRNA (gene RPL15): 0.19
mRNA (gene RPL18A): 0.23
mRNA (gene RPL19): 0.11
mRNA (gene RPL21): −0.04
mRNA (gene RPL22): 0.00
mRNA (gene RPL24): 0.00
mRNA (gene RPL26): 0.02
mRNA (gene RPL27): −0.13
mRNA (gene RPL27A): 0.07
mRNA (gene RPL28): 0.22
PP242 mRNA (gene RPL28): 0.55
mRNA (gene RPL31): 0.05
mRNA (gene RPL32): 0.11
mRNA (gene RPL34): 0.04
mRNA (gene RPL36A): −0.01
mRNA (gene RPL37A): 0.01
mRNA (gene RPL39): −0.15
PP242 mRNA (gene RPL39): −0.42
mRNA (gene RPL41): −0.01
mRNA (gene RPLP0): 0.12
mRNA (gene RPLP1): 0.12
mRNA (gene RPLP2): 0.14
mRNA (gene RPS2): 0.20
mRNA (gene RPS3): 0.24
mRNA (gene RPS3A): −0.06
mRNA (gene RPS4X): 0.12
mRNA (gene RPS5): 0.23
mRNA (gene RPS7): −0.04
mRNA (gene RPS9): 0.34
mRNA (gene RPS12): 0.04
mRNA (gene RPS13): −0.08
mRNA (gene RPS14): 0.16
mRNA (gene RPS15): 0.21
mRNA (gene RPS15A): 0.07
mRNA (gene RPS19): 0.23
mRNA (gene RPS20): −0.01
PP242 mRNA (gene RPS20): −0.10
mRNA (gene RPS21): 0.09
mRNA (gene RPS25): −0.04
mRNA (gene RPS27): 0.07
PP242 mRNA (gene RPS27): 0.06
mRNA (gene RPS27A): −0.04
mRNA (gene RPS28): 0.28
PP242 mRNA (gene SDCCAG10): −0.37
mRNA (gene SLC19A1): 0.10
mRNA (gene TKT): 0.33
mRNA (gene TPT1): 0.01
mRNA (gene TSC2): 0.21
mRNA (gene UBA52): 0.18
PP242 mRNA (gene UBTD2): 0.25
PP242 mRNA (gene UCHL5): −0.51
PP242 mRNA (gene VHL): 0.43
mRNA (gene VIM): 0.67
mRNA (gene YB1): 0.24
